From patent US8163477B2, “Nuclease-based method for detecting and quantitating oligonucleotides” (Isis Pharmaceuticals, Inc, priority 2000, dated 2012)

Test: Plasma concentration after subcutaneous injection in mice (pharmacokinetic profile)
Format: in vivo
Settings: 50 mg/kg subcutaneous
Procedure: FIG. 5 is a graph showing the pharmacokinetic profile of ISIS 22023 following 50 mg/kg subcutaneous injection in mice. Plasma samples were analyzed at various time points using the oligonucleotide detection method of the present invention.
Detection of ISIS 22023 after injection in mice ISIS 22023 (50 mg/kg) was injected subcutaneously into mice and the plasma concentration was determined at various times post-injection by the method described in Example 1. […] The predicted and observed half lives corresponded very well.

Substance: ISIS 2302: antisense oligonucleotide GCCCAAGCTGGCATCCGTCA (SEQ ID NO:2) (listed as DNA, chemistry not given here)
- elimination half-life: very long
